In one assay the target is EGFR (d746-750) (Homo sapiens (Human), UniProt P00533, DEL746-750). Briefly: Biochemical EGFR inhibition assay, EGFR (d746-750). Particulars: Caliper mobility shift; 1.0 mM ATP or ATP Km; read-out: Enz EGFR_Exon19-del746-750 IC50. The protocol:
(§1) Reactions proceeded until between 10% to 20% total peptides were phosphorylated at room temperature (25° C.) and were terminated with 35 mM 2,2′,2″,2″-(ethane-1,2-diyldinitrilo)tetraacetic acid (EDTA). Product was detected using the Caliper mobility shift detection method where the phosphorylated peptide (product) and substrate were electrophoretically separated and measured. Percent activity was plotted against log concentration of compound and points to generate an apparent IC50.

In another assay the target is EGFR L858R (Homo sapiens (Human), UniProt P00533, L858R). Kind of assay: Biochemical EGFR inhibition assay, EGFR L858R. Particulars: Caliper mobility shift; 1.0 mM ATP or ATP Km; read-out: Enz EGFR_L858R IC50. The protocol: as §1
The target in assay [1] is pEGFR (Tyr1068) in PC-9 cells (Ex19Del) (Homo sapiens (Human), UniProt P00533, DEL746-750). Kind of assay: PC-9 pEGFR AlphaLISA assay. Particulars: 4 hours incubation, p-EGFR (Tyr1068) AlphaLISA, read-out: Ext pEGFR_PC-9 Ex19Del IC50. The format is cell-based. As to the method:
PC-9/A431 pEGFR AlphaLISA Assays
Inhibitory effects of compounds were evaluated in cellular assays that measure level of intracellular phosphorylation of EGFR in PC-9 (ECACC, #90071810, Milipore/Sigma) and A431 cell lines (ATCC, CRL-1555) using AlphaLISA sureFire ultra p-EGFR (Tyr1068) assay kit (PerkinElmer, ALSU-PEGFR-A50K). PC-9 cells were seeded at 3.125×10^5 cells/ml in 40 μL phenol-free DMEM supplemented with 10% FBS per well of a 384 well plate (Corning, 3764), while A431 were seeded at 3.125×10^5 cells/ml in 40 μL in phenol-free DMEM with 0.5% FBS. Cells were allowed to adhere overnight at 37° C./5% CO2. On the next day, compounds were transferred at 4-fold, 10-point serial dilution from compound source plate to cell plates using liquid handler Echo550 and were incubated at 37° C./5% CO2 for 4 hours. A431 cells were stimulated prior harvesting for 10 min with EGF at final concentration of 30 ng/ml in the incubator. Medium was removed from the plates and cells were lysed with 10 μL of 1× AlphaLISA lysis buffer (supplemented with 1× protease/phosphatase inhibitor cocktail) followed by shaking at 600 rpm for 30 minutes at room temperature. Lysates were transferred to Optiplate (Apricot designs) and 5 μl of 1× acceptor bead mix (prepared just before use) was added to each well followed by incubation at room temperature for 1.5-2 h in dark. Then 5 μL of freshly-made donor bead mix is added to each well under subdued lighting or green filters, was mixed well on the shaker and the plate was sealed and left for an overnight incubation at room temperature in dark. On the next day, the plate was read the Envision using standard AlphaLisa settings. Percent of pEGFR inhibition was plotted against log concentration of compounds to generate IC50 values.
A general note: Bead proximity is the source of the signal in Alpha formats.

17 molecules from patent US20250236608A1, “EGFR INHIBITORS” (Blueprint Medicines Corporation, priority 2022, published 2025) can be followed below.

Where a name gives a salt, the structure may show the parent alone.

Usually IC50 stands for the midpoint of a concentration-inhibition curve.

Sequence of EGFR L858R (P00533 25-1210 L858R): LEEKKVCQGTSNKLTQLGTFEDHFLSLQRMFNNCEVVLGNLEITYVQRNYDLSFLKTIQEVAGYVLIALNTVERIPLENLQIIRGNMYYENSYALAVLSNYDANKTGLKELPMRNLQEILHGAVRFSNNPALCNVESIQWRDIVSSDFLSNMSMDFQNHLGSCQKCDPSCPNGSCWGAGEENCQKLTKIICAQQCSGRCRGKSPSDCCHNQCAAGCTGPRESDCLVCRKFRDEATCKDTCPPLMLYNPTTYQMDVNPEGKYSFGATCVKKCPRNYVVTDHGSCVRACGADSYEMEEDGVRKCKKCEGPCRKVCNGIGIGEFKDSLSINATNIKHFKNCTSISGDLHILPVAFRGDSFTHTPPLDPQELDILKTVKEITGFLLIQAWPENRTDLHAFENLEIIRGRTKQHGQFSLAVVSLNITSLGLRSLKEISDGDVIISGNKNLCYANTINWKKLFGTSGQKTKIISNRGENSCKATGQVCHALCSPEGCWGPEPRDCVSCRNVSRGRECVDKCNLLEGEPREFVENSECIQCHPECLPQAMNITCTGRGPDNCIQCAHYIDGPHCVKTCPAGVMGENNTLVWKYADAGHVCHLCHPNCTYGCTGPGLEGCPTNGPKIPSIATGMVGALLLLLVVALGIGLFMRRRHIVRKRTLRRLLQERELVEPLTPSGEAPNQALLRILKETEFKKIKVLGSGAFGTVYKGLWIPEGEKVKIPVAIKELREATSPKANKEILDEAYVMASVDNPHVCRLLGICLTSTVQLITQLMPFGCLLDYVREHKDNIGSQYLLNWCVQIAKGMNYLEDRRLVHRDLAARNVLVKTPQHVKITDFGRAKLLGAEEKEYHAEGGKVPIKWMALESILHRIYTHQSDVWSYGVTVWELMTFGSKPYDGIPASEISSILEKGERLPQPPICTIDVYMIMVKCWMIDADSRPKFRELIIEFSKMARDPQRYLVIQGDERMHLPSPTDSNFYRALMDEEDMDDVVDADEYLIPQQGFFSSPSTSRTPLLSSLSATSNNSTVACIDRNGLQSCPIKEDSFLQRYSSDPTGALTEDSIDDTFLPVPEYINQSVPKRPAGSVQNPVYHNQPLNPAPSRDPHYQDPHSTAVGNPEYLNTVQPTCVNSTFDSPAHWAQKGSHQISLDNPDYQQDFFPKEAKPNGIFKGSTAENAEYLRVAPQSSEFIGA
Sequence of pEGFR (Tyr1068) in PC-9 cells (Ex19Del) (P00533 other isoform, or with tags, fused parts or gaps del 746-750): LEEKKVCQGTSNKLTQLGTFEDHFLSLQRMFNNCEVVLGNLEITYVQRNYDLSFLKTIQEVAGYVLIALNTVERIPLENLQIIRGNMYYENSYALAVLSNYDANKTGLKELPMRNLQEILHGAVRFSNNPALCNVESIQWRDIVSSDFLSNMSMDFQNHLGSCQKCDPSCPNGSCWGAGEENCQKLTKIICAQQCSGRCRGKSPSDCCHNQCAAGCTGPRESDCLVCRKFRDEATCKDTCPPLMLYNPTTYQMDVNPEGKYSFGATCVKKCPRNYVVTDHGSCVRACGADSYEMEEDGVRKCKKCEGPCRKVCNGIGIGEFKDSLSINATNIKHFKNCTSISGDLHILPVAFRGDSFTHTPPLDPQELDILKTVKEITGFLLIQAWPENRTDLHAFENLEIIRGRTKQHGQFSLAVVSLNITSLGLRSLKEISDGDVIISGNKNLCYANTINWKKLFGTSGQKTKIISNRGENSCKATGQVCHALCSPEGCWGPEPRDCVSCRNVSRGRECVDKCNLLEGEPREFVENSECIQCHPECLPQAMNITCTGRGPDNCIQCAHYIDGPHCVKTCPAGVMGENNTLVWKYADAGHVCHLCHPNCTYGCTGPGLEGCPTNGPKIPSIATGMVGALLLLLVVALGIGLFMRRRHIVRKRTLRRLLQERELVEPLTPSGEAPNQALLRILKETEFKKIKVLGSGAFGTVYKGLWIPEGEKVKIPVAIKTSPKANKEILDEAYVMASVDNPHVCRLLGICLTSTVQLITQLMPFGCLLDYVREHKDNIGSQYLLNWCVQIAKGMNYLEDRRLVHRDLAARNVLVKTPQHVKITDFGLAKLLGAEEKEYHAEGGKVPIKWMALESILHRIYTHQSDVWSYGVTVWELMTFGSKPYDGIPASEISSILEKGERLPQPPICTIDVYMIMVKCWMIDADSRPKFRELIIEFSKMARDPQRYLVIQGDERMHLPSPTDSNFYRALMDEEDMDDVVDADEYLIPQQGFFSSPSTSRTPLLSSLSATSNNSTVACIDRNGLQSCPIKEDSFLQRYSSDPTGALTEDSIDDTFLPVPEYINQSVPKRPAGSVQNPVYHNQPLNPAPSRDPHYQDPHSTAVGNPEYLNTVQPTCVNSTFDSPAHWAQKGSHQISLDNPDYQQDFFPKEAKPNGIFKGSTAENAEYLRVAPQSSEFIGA
Sequence of EGFR (d746-750) (P00533 other isoform, or with tags, fused parts or gaps del 1-694/del 746-750 limits assumed): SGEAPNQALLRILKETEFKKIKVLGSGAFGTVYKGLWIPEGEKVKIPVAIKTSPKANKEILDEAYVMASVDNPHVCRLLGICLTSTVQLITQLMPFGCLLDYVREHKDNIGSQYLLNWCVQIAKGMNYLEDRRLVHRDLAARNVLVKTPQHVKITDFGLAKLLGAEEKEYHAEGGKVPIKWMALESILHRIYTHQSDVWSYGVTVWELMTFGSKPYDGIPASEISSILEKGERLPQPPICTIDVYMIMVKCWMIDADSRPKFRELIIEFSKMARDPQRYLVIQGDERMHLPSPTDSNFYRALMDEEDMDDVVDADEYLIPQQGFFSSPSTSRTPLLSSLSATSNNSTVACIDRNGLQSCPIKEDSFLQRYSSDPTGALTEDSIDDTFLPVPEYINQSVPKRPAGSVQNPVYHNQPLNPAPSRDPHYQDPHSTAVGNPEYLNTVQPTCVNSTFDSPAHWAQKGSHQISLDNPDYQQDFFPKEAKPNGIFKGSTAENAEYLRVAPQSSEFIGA

On to `CCOc1cc2ncnc(-c3cn(C(C)C)nc3-c3ccccc3)c2cc1[C@H](C)O` (single isomer, unassigned) [Example 110, (S)-1-(7-ethoxy-4-(1-isopropyl-3-phenyl-1H-pyrazol-4-yl)quinazolin-6-yl)ethan-1-ol or (R)-1-(7-ethoxy-4-(1-isopropyl-3-phenyl-1H-pyrazol-4-yl)quinazolin-6-yl)ethan-1-ol], for which the IC50 is 1.4 nM on EGFR (d746-750), 1.8 nM on EGFR L858R and 2.5 nM in assay [1].

For the molecule `COc1cc2ncnc(-c3cn(CC(F)F)nc3-c3ccccc3)c2cc1OC` [Example 15, 4-(1-(2,2-difluoroethyl)-3-phenyl-1H-pyrazol-4-yl)-6,7-dimethoxyquinazoline], the values for the IC50 (on EGFR (d746-750); on EGFR L858R; in assay [1]) were 0.8 nM, 1.5 nM and 1.5 nM, respectively.

With `CCC(=O)Nc1cc2c(-c3cn(C)nc3-c3ccccc3)ncnc2cc1C#CCN1CCOCC1` [Example 451, N-(4-(1-methyl-3-phenyl-1H-pyrazol-4-yl)-7-(3-morpholinoprop-1-yn-1-yl)quinazolin-6-yl)propionamide], the concentration for half-maximal inhibition (IC50) was 2 nM at EGFR (d746-750), 3.5 nM at EGFR L858R and 2.8 nM in assay [1].

As to `COc1cc2ncnc(-c3cn(C)nc3-c3ccccc3)c2nc1NC(=O)C1(C(F)F)CC1` [Example 369, 1-(difluoromethyl)-N-(7-methoxy-4-(1-methyl-3-phenyl-1H-pyrazol-4-yl)pyrido[3,2-d]pyrimidin-6-yl)cyclopropane-1-carboxamide], the IC50 came out at 0.7 nM at EGFR (d746-750), 1.3 nM at EGFR L858R and 0.9 nM in assay [1].

On to `CCOc1cc2ncnc(-c3cn(C)nc3-c3ccccc3)c2cc1OC1CCN(C(=O)CC)CC1` [Example 10, 1-(4-((7-ethoxy-4-(1-methyl-3-phenyl-1H-pyrazol-4-yl)quinazolin-6-yl)oxy)piperidin-1-yl) propan-1-one], for which the values for the IC50 (on EGFR (d746-750); on EGFR L858R; in assay [1]) were 1.9 nM, 3.5 nM and 2.8 nM, respectively.

As for `COc1cc2ncnc(-c3cn(C)nc3-c3ccccc3)c2nc1O[C@@H](C)c1nnc(C)s1` (single isomer, unassigned) [Example 51, (S)-2-(1-((7-methoxy-4-(1-methyl-3-phenyl-1H-pyrazol-4-yl)pyrido[3,2-d]pyrimidin-6-yl)oxy)ethyl)-5-methyl-1,3,4-thiadiazole or (R)-2-(1-((7-methoxy-4-(1-methyl-3-phenyl-1H-pyrazol-4-yl)pyrido[3,2-d]pyrimidin-6-yl)oxy)ethyl)-5-methyl-1,3,4-thiadiazole], the IC50 at EGFR (d746-750) is 5.3 nM; on EGFR L858R, 6.9 nM; in assay [1], 30.6 nM.

As to `CCn1cc(-c2ncnc3cc(OC)c(NC(=O)[C@@]45C[C@@H]4CN(C)C5)nc23)c(-c2ccc(F)cc2)n1` (single isomer, unassigned) [Example 398, (1S,5S)—N-(4-(1-ethyl-3-(4-fluorophenyl)-1H-pyrazol-4-yl)-7-methoxypyrido[3,2-d]pyrimidin-6-yl)-3-methyl-3-azabicyclo[3.1.0]hexane-1-carboxamide or (1R,5R)—N-(4-(1-ethyl-3-(4-fluorophenyl)-1H-pyrazol-4-yl)-7-methoxypyrido[3,2-d]pyrimidin-6-yl)-3-methyl-3-azabicyclo[3.1.0]hexane-1-carboxamide], the values for the 50% inhibitory concentration (IC50) (at EGFR (d746-750); at EGFR L858R; in assay [1]) were 1.4 nM, 2.6 nM and 1.3 nM, respectively.

For the molecule `CCn1cc(-c2ncnc3cc(OC)c(OC(=O)N4CCN(C)C[C@@H]4C)cc23)c(-c2ccccc2)n1` [Example 95, 4-(1-ethyl-3-phenyl-1H-pyrazol-4-yl)-7-methoxyquinazolin-6-yl(S)-2,4-dimethylpiperazine-1-carboxylate], the half-inhibitory concentration (IC50) on EGFR (d746-750) is 1.7 nM; at EGFR L858R, 3 nM; in assay [1], 2.4 nM.

For `COc1cc2ncnc(-c3cn(C)nc3-c3ccccc3)c2cc1OC(=O)N1C[C@H](C)N(C)C[C@@H]1C` [Example 97, 7-methoxy-4-(1-methyl-3-phenyl-1H-pyrazol-4-yl)quinazolin-6-yl (2S,5S)-2,4,5-trimethylpiperazine-1-carboxylate], the IC50 at EGFR (d746-750) was found to be 4.9 nM; at EGFR L858R, 7.8 nM; in assay [1] it was 12.4 nM.

Turning to `COc1cc2ncnc(-c3cn(C)nc3-c3ccccc3)c2cc1C(C)(C)O` [Example 121, 2-(7-methoxy-4-(1-methyl-3-phenyl-1H-pyrazol-4-yl)quinazolin-6-yl) propan-2-ol], the IC50 amounted to 2.7 nM on EGFR (d746-750), 7.6 nM on EGFR L858R and 13.8 nM in assay [1].

As for `COc1cc2ncnc(-c3cn(C)nc3-c3ccccc3)c2cc1NC(=O)[C@@H]1CCN(C)C[C@H]1F` (racemic) [Example 339, trans-rac-(3R,4R)-3-fluoro-N-(7-methoxy-4-(1-methyl-3-phenyl-1H-pyrazol-4-yl)quinazolin-6-yl)-1-methylpiperidine-4-carboxamide trifluoroacetate], the concentration for half-maximal inhibition (IC50) turned out to be 1 nM at EGFR (d746-750), 1.7 nM on EGFR L858R and 0.8 nM in assay [1].

`COc1cc2ncnc(-c3cn(C)nc3-c3ccccc3)c2cc1NC(=O)c1ccccc1C` [Example 197, N-(7-methoxy-4-(1-methyl-3-phenyl-1H-pyrazol-4-yl)quinazolin-6-yl)-2-methylbenzamide]: the results for the half-maximal inhibitory concentration (IC50) (on EGFR (d746-750); at EGFR L858R; in assay [1]) were 0.8 nM, 1.8 nM and 2.5 nM, respectively.

As to `[2H]C([2H])([2H])n1ncc(-c2ncnc3cc(OC)c(NC(=O)C45CC(N(C)C)(C4)C5)nc23)c1-c1ccccc1` [Example 493], the 50% inhibitory concentration (IC50) on EGFR (d746-750) came to 31.9 nM; at EGFR L858R it was 92.4 nM; in assay [1], 258 nM.

Take `CN(C)C12CC(C(=O)Nc3nc4c(-c5cn(C)nc5-c5ccc(F)cc5)ncnc4cc3OC3CC3)(C1)C2` [Example 461, N-{7-cyclopropoxy-4-[3-(4-fluorophenyl)-1-methyl-1H-pyrazol-4-yl]pyrido[3,2-d]pyrimidin-6-yl}-3-(dimethylamino) bicyclo[1.1.1]pentane-1-carboxamide]: the IC50 at EGFR (d746-750) came out at 2.9 nM; at EGFR L858R, 12.7 nM; in assay [1], 7.2 nM.

In the case of `COc1cc2ncnc(-c3cn(C)nc3-c3ccccc3)c2cc1NC(=O)c1cnc(C)s1` [Example 206, N-(7-methoxy-4-(1-methyl-3-phenyl-1H-pyrazol-4-yl)quinazolin-6-yl)-2-methylthiazole-5-carboxamide], the results for the IC50 (on EGFR (d746-750); on EGFR L858R; in assay [1]) were 0.4 nM, 0.8 nM and 0.5 nM, respectively.

For the molecule `COc1cc2ncnc(-c3cn(C(F)(F)F)nc3-c3ccccc3)c2cc1NC(=O)C12CC(C1)C2` [Example 484, N-(7-methoxy-4-(3-phenyl-1-(trifluoromethyl)-1H-pyrazol-4-yl)quinazolin-6-yl)bicyclo[1.1.1]pentane-1-carboxamide], the IC50 on EGFR (d746-750) is 13.4 nM; at EGFR L858R, 48.7 nM; in assay [1] it was 184 nM.

On to `COc1cc2ncnc(-c3cn(C)nc3-c3c(F)cccc3F)c2cc1NC(=O)[C@@]12C[C@@H]1CN(C)C2` [Example 292, (1S,5S)—N-(4-(3-(2,6-difluorophenyl)-1-methyl-1H-pyrazol-4-yl)-7-methoxyquinazolin-6-yl)-3-methyl-3-azabicyclo[3.1.0]hexane-1-carboxamide], for which the IC50 amounted to 3.2 nM at EGFR (d746-750), 145 nM on EGFR L858R and 9.6 nM in assay [1].
